Measured values: paper PMC9251005, “CT295 Is Chlamydia trachomatis’ Phosphoglucomutase and a Type 3 Secretion Substrate” (Frontiers in Cellular and Infection Microbiology, 2022)

What was measured:
Format in all cases: biochemical
CpsG-HIS [1] = target: T1, CpsG-HIS (Escherichia coli, UniProt P24175); assay: HPAEC-PAD product analysis with and without cofactor; settings: 0.2 mg/ml Glc1,6diP, 0.66 mg/ml Glc1P, 10 mM Tris-HCl, 0.5 mM MgSO4, pH 8.0, 37°C, 20 min
T1 construct: gene manB; C-terminal polyhistidine tag, E. coli BL21(DE3), Ni-NTA and Superdex 200
T1 sequence (P24175 1-456): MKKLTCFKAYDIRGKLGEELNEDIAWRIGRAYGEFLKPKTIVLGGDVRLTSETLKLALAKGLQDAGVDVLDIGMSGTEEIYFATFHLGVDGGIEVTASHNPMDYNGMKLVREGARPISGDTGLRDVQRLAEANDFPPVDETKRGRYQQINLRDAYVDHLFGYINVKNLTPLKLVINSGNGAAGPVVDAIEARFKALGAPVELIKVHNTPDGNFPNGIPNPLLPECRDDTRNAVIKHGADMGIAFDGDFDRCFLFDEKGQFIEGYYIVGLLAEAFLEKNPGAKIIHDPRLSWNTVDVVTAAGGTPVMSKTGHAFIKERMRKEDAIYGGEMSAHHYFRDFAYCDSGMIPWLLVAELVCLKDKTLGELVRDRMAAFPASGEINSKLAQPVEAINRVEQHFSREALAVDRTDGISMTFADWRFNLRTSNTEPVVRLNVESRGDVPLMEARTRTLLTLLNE

CCA00344-HIS = target: T2, CCA00344-HIS (Chlamydia caviae, UniProt Q823R2); assay: HPAEC-PAD product analysis; settings: 0.2 mg/ml Glc1,6diP, 0.1 mg/ml enzyme, 10 mM Tris-HCl, 0.5 mM MgSO4, pH 8.0, 37°C, 20 min
T2 construct: gene CCA_00344; C-terminal polyhistidine tag, E. coli BL21(DE3), Ni-NTA and Superdex 200
T2 sequence (Q823R2 entry or part of it): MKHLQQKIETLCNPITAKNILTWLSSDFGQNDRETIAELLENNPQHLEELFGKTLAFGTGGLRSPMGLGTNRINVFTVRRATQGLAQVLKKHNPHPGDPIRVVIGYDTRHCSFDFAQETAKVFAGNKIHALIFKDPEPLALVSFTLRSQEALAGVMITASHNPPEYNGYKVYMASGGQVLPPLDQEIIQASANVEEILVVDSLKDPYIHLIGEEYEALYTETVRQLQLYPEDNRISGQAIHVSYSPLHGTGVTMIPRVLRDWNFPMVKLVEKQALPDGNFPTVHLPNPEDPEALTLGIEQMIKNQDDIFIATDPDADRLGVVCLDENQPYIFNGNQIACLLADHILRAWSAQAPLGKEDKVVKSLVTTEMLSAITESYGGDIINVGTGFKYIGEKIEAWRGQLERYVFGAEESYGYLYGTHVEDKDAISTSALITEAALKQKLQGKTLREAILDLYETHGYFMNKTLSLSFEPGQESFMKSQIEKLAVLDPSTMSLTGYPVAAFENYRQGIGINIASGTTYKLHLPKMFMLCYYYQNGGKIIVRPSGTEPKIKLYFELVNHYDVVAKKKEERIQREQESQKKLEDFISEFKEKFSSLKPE

CpsG-HIS [2] = target: T1, CpsG-HIS; assay: HPAEC-PAD product analysis; settings: 0.66 mg/ml Glc1P, 0.2 mg/ml Glc1,6diP, 0.1 mg/ml enzyme, 10 mM Tris-HCl, 0.5 mM MgSO4, pH 8.0, 37°C, 20 min
CT815-HIS = target: T3, CT815-HIS (Chlamydia trachomatis, UniProt O84822); assay: HPAEC-PAD product analysis; settings: 0.66 mg/ml Glc1P, 0.2 mg/ml Glc1,6diP, 0.1 mg/ml enzyme, 10 mM Tris-HCl, 0.5 mM MgSO4, pH 8.0, 37°C, 20 min
T3 construct: gene glmM; pET28a, C-terminal polyhistidine tag, E. coli BL21(DE3), Ni-NTA and Superdex 200
T3 sequence (O84822 whole entry): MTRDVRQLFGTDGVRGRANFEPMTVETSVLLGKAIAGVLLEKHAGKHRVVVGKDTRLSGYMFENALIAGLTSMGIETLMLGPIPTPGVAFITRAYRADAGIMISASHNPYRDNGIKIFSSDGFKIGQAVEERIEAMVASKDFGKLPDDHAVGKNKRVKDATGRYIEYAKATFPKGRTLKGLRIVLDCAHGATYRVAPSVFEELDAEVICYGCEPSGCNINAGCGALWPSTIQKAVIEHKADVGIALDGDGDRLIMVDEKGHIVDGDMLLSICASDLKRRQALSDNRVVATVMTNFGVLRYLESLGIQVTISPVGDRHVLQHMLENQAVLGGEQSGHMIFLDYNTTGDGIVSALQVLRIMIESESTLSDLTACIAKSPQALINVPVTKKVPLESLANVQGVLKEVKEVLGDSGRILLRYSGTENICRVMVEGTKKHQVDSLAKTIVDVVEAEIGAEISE

Flag-CT295 = target: T4, Flag-CT295 (Chlamydia trachomatis, UniProt O84297); assay: HPAEC-PAD product analysis, enzyme on anti-Flag beads; settings: 0.66 mg/ml Glc1P, no Glc1,6diP, 10 mM Tris-HCl, 0.5 mM MgSO4, pH 8.0, 37°C, 20 min; immobilised enzyme
T4 construct: gene mrsA_1; N-terminal Flag tag, expressed in HEK293T, immobilised on anti-Flag beads
T4 sequence (O84297 entry or part of it): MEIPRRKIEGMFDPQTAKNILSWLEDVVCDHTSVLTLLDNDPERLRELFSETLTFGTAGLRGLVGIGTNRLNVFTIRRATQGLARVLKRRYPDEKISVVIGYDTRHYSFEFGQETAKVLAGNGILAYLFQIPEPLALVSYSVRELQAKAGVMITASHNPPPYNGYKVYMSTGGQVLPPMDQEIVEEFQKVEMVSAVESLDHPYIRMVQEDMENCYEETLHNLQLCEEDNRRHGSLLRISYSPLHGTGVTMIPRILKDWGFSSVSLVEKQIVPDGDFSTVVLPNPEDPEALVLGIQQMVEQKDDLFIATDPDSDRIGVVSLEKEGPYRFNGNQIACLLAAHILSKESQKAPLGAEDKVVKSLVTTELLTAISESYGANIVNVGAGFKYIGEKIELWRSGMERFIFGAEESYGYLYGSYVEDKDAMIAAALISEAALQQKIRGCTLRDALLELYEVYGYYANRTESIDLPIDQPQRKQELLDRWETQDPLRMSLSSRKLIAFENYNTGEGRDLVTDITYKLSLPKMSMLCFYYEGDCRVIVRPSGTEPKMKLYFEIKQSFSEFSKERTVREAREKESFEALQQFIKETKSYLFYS

In the case of `O=P(O)(O)OC[C@H]1O[C@H](OP(=O)(O)O)[C@H](O)[C@@H](O)[C@@H]1O` [Glc1,6diP], the “HPAEC-PAD product analysis with and without cofactor” value (CpsG-HIS [1]) is reported as “CpsG-HIS required the presence of Glc1,6diP to convert Glc1P into Glc6P”.
In the case of `O=P(O)(O)O[C@H]1O[C@H](CO)[C@@H](O)[C@H](O)[C@H]1O` [Glc1P], the HPAEC-PAD product analysis (CCA00344-HIS; 0.66 mg/ml Glc1P) is reported as “Incubation of Glc1P in the presence of CCA00344-HIS led to its full conversion into Glc6P”, the HPAEC-PAD product analysis (CpsG-HIS [2]) is reported as “CpsG-HIS required the presence of Glc1,6diP to convert Glc1P into Glc6P” and the HPAEC-PAD product analysis (CT815-HIS) is reported as “only low levels of Glc6P were detected in the presence of CT815-HIS”. The “HPAEC-PAD product analysis, enzyme on anti-Flag beads” value (Flag-CT295) was “These data demonstrated the ability of CT295 to convert Glc1P into Glc6P”.
`O=P(O)(O)OC[C@H]1OC(O)[C@H](O)[C@@H](O)[C@@H]1O` (stereo partly drawn) [Glc6P] was tested, and the HPAEC-PAD product analysis (CCA00344-HIS; 0.33 mg/ml Glc6P, reverse reaction) was “very low amounts of Glc1P were detected after incubation with CCA00344-HIS or CpsG-HIS”.
